In the supplement of paper PMC7840683:
Counter-ions that a name gives are not always drawn.

Test system: HepaRG
Assay: LDH release cytotoxicity, % of total lysis control; higher = more cytotoxic
Details: 48 h
In short: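 Single-lot HepaRG cells in collagen I-coated 96-well plates were treated for 48 h in serum-free induction medium containing 0.5% DMSO with test chemicals in eight-point half-log series up to 100 µM. For total lysis, wells received 0.1% Triton X. LDH in 50 µL spent medium was assayed by resorufin fluorescence with CytoTox-ONE. Percent cytotoxicity was normalized to the on-plate vehicle and total lysis controls, with duplicates averaged.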

c1ccc(C2CO2)cc1 (centres undefined) [Styrene oxide]
Details | LDH release cytotoxicity [%]
0.03162 µM | -1.36
0.1 µM | -1.15
0.3162278 µM | -1.2
1 µM | -1.64
3.16228 µM | -1.36
10 µM | -0.823
31.6228 µM | -0.175
100 µM | 0.415

COC(=O)C(C)Oc1ccc(Oc2ccc(Cl)cc2Cl)cc1 (racemic) [Methyl (RS)-2-[4-(2,4-dichlorophenoxy)phenoxy]propionate]
Details | LDH release cytotoxicity [%]
0.03162 µM | -0.971
0.1 µM | -1.59
0.3162278 µM | -1.59
1 µM | -2.24
3.16228 µM | -1.38
10 µM | -1.28
31.6228 µM | -1.8
100 µM | -0.104

CN(C)C(=O)NC1(c2ccccc2)CCN(CCC2(c3ccc(F)c(F)c3)CN(C(=O)c3ccccc3)CCO2)CC1 (centres undefined)
Details | LDH release cytotoxicity [%]
0.0297254 µM | -1.81
0.094 µM | -1.79
0.297254 µM | -2.55
0.94 µM | -1.66
2.97254 µM | -1.69
9.4 µM | -1.59
29.72541 µM | 0.14
94 µM | 13.5

COP(=O)(OC)OC(C)=CC(=O)N(C)C [Dicrotophos]
Details | LDH release cytotoxicity [%]
0.03162 µM | -2.01
0.1 µM | -1.23
0.3162278 µM | -1.47
1 µM | -2.46
3.16228 µM | -1.22
10 µM | -0.345
31.6228 µM | 1.7
100 µM | -0.538

Cc1nc[nH]c1CC1CCc2c(C)c3ccccc3n2C1=O (centres undefined) [Fabesetron hydrochloride]
Details | LDH release cytotoxicity [%]
0.0281443 µM | -1.11
0.089 µM | -1.43
0.281443 µM | -1.19
0.89 µM | -1.4
2.81443 µM | -1.38
8.9 µM | -0.0311
28.144271 µM | 43.7
89 µM | 76.2

CC=Cc1ccc(O)c(OC)c1 [Isoeugenol]
Details | LDH release cytotoxicity [%]
0.03162 µM | -2.86
0.1 µM | -2.42
0.3162278 µM | -2.55
1 µM | -3.05
3.16228 µM | -2.354
10 µM | -2.16
31.6228 µM | -2.4
100 µM | -1.84

COP(=O)(OC)SCn1c(=O)oc2cc(Cl)cnc21 [Azamethiphos]
Details | LDH release cytotoxicity [%]
0.03162 µM | -1.96
0.1 µM | -2.24
0.3162278 µM | -2.14
1 µM | -1.66
3.16228 µM | -2.14
10 µM | -1.74
31.6228 µM | 1.89
100 µM | 22.6

CCCCCCCc1ccc(O)cc1 [4-Heptylphenol]
Details | LDH release cytotoxicity [%]
0.03162 µM | -0.653
0.1 µM | -1.61
0.3162278 µM | -0.99
1 µM | -1.03
3.16228 µM | -1.8
10 µM | -0.598
31.6228 µM | -0.324
100 µM | 0.525

CCCCCCCCCCCCCN1CC(C)OC(C)C1 (centres undefined) [Tridemorph]
Details | LDH release cytotoxicity [%]
0.0322552 µM | -2.04
0.102 µM | -2.33
0.322552 µM | -1.56
1.02 µM | -2.46
3.2255232 µM | -1.14
10.2 µM | -0.844
32.2552 µM | -0.534
102 µM | 71.8

Nc1cccc(N)c1 [1,3-Benzenediamine]
Details | LDH release cytotoxicity [%]
0.03162 µM | -1.18
0.1 µM | -2.11
0.3162278 µM | -1.93
1 µM | -1.36
3.16228 µM | -1
10 µM | -0.806
31.6228 µM | -1.17
100 µM | 0.323

CCN1CCC2(CC1)COc1cc3c(cc12)N(C(=O)c1ccc(-c2ccc(-c4nnc(C)o4)cc2C)cc1)CC3
Details | LDH release cytotoxicity [%]
0.03162 µM | -2.84
0.1 µM | -2.94
0.3162278 µM | -1.93
1 µM | -3.08
3.16228 µM | -3.21
10 µM | -2.54
31.6228 µM | -2.8
100 µM | -0.687

Cn1cnc([N+](=O)[O-])c1Sc1ncnc2nc[nH]c12 [Azathioprine]
Details | LDH release cytotoxicity [%]
0.0314647 µM | -0.881
0.0995 µM | -1.48
0.3146466 µM | -1.64
0.995 µM | -0.793
3.14647 µM | 1.06
9.95 µM | 4.17
31.4647 µM | 6.78
99.5 µM | 8.21

CC(Oc1ccc(CNC(=O)c2cccnc2Oc2ccc3c(c2)OCO3)c(F)c1)C(=O)O (centres undefined)
Details | LDH release cytotoxicity [%]
0.03162 µM | 0.432
0.1 µM | -0.868
0.3162278 µM | -1.04
1 µM | -1.35
3.16228 µM | -1.24
10 µM | -0.8947
31.6228 µM | -0.798
100 µM | -0.624

CCON=C(CC)C1C(=O)CC(c2c(C)cc(C)cc2C)CC1=O (centres undefined) [Tralkoxydim]
Details | LDH release cytotoxicity [%]
0.03162 µM | -1.61
0.1 µM | -2.54
0.3162278 µM | -2.84
1 µM | -1.69
3.16228 µM | -3.18
10 µM | -2.04
31.6228 µM | -1.88
100 µM | -0.758

CC1(C)CON(Cc2ccccc2Cl)C1=O [Clomazone]
Details | LDH release cytotoxicity [%]
0.03162 µM | -5.32
0.1 µM | -6.75
0.3162278 µM | -6.22
1 µM | -6.24
3.16228 µM | -6.33
10 µM | -5.74
31.6228 µM | -5.91
100 µM | -4.53

CC(C)COC(=O)CCCCC(=O)OCC(C)C [Diisobutyl adipate]
Details | LDH release cytotoxicity [%]
0.03162 µM | -1.813
0.1 µM | -2.01
0.3162278 µM | -0.902
1 µM | -2.26
3.16228 µM | -2.38
10 µM | -0.129
31.6228 µM | 7.28
100 µM | 46.4

c1cc2ccc3cccc4ccc(c1)c2c34 [Pyrene]
Details | LDH release cytotoxicity [%]
0.03162 µM | 0.277
0.1 µM | -1.34
0.3162278 µM | -1.54
1 µM | -0.813
3.16228 µM | -0.783
10 µM | -0.0329
31.6228 µM | -0.764
100 µM | -0.178

C[Si]1(C)O[Si](C)(C)O[Si](C)(C)O[Si](C)(C)O1 [Octamethylcyclotetrasiloxane]
Details | LDH release cytotoxicity [%]
0.03162 µM | -1.66
0.1 µM | -2.19
0.3162278 µM | -0.981
1 µM | -1.15
3.16228 µM | -1.27
10 µM | -0.835
31.6228 µM | -1.36
100 µM | 1.7
